# What was measured:
# [1] = tested on: LNCaP cells stably transfected with the plasmid p22EDT1; assay: Trypan blue exclusion cell viability assay after 48 hours culture with 4-OHT (FIG. 3); type: cell-based, human; details: 4-OHT of varying concentrations
# Procedure: FIG. 3. […] Parental LNCAP cells (blue) and LNCaP cells stably transfected with the plasmid p22EDT1 (red) were cultured in the presence of 4-OHT of varying concentrations for 48 hours after which the trypan blue exclusion assay was used to assess cell viability. p22EDT1 contains an SV40 promoter driving an FLP-ERt gene sequence and a CMV promoter driving a DT-A sequence disrupted by an FRT-puro/pA-FRT cassette.
# [2] = tested on: PC-3 cells co-infected with the bcl2/FLP-ERt and RSV/FRT2puroDT-A containing adenoviruses; assay: In vitro test of gene therapy system: viable and clonogenic cell number after 4-OHT; type: cell-based, human; details: co-infected PC-3 cells, 4-OHT-treated versus non-treated cultures; 1, 2, 3 μM, 48 hours
# Procedure: PC-3 cells are co-infected with the bcl2/FLP-ERt and RSV/FRT2puroDT-A containing adenoviruses. Cell death resulting from administration of the synthetic ligand 4-hydroxytamoxifen (4-OHT) is tested in cultured cells. Adenoviral infection is carried out by the addition of viral solutions of varying ratios of the two viruses and at varying degrees of multiplicity of infection to cell monolayers. After three hours of exposure to virus, the medium is changed and cells are incubated in fresh medium containing 4-OHT. Three concentrations of 4-OHT are tested: 1, 2, and 3 μM. After 48 hours incubation with 4-OHT, the number of viable cells are determined using the Trypan blue exclusion assay and the MTT assay (8). Since DT-A kills irreversibly by both apoptosis, as well as nonapoptotic pathways (39), the number of apoptotic cells is also determined. In addition, the growth potential of cells following treatment with tamoxifen is determined using a clonogenic assay (8).
# In infected cells, the binding of 4-OHT to the FLP-ERt fusion protein will activate FLP. This in turn will result in recombinational excision of the FRT-puropA-FRT sequence, expression of the DT-A subunit, and cell death. […] Control infections are done with the RSV/FRT2puroDT-A virus alone and with the RSV/puro virus. […]
# [3] = tested on: PC-3 xenografts; assay: In vivo test of gene therapy system: PC-3 xenograft tumor volume after 4-OHT; design: species or system male BALB/c nu/nu athymic mice
# Procedure: To further test the efficacy of the regulated recombination system for targeting DT-A to bcl-2 expressing cells, xenografts are generated in male BALB/c nu/nu athymic mice by the subcutaneous injection of PC-3 cells (38,40,42). To generate tumors, […] are mixed with Matrigel basement membrane matrix and injected subcutaneously into the flank of a mouse (38). When tumors reach a volume of about 50 mm^3, a mixture of bcl2/FLP-ERt and RSV/FRT2puroDT-A containing virus is injected directly into the tumor site. A 1:1 ratio of the two viruses is maintained, while the total number of plaque forming units varies (10^9, 5×10^9, and 10^10). Twenty-four hours after injection of the virus, 4-OHT is administered to the host mice either by a single injection directly into the tumor (100 μl of a 3 μM solution in PBS) or by intraperitoneal injection on five consecutive days (1 mg in 100 μl sunflower seed oil). At one, two, and three weeks following the administration of 4-OHT, mice are euthanized, tumors are excised, and their volume and wet weight determined. Tumor volume is calculated by multiplying caliper measurements of length, width, and depth and then multiplying by 0.5236 (23). […] Tumors are fixed and processed for histopathological examination. Other control groups in this study are xenografts infected only with the RSV/FRT2puroDT-A virus and xenografts injected only with PBS.
substance,measurement,setting,value
4-hydroxytamoxifen [4-OHT],cell viability (DTA expression and cell death),[1],results in DTA expression and cell death
same,number of viable and clonogenic cells,[2],significantly reduced
same,tumor size,[3]; control xenografts infected only with the RSV/FRT2puroDT-A virus or injected only with PBS,no effect on tumor size
same,tumor volume,"[3]; xenografts injected with 1:1 mixture of bcl2/FLP-ERt and RSV/FRT2puroDT-A virus, 4-OHT intratumoral or intraperitoneal, versus vehicle-treated control mice",significantly less

# — US20010036460A1, “Targeted death cancer cells” (priority 2000, published 2001)
